The IC50 is the concentration needed to halve the response being measured.

Bridge positions count the residues as written; N and C are the ends. Square brackets hold non-standard residues; d marks the D form. Peptide text beside a SMILES is read from it. * marks the point of attachment. ξ: configuration not given here. Phe(4-COOH) = N[C@@H](Cc1ccc(C(=O)O)cc1)C(=O)O; Bip = N[C@@H](Cc1ccc(-c2ccccc2)cc1)C(=O)O; Phe(3-CN) = N#Cc1cccc(C[C@H](N)C(=O)O)c1; Phe(3-Me) = Cc1cccc(C[C@H](N)C(=O)O)c1; Val(3-OH) = CC(C)(O)[C@H](N)C(=O)O; aIle = CC[C@@H](C)[C@H](N)C(=O)O; 4Pal = N[C@@H](Cc1ccncc1)C(=O)O; Cha = N[C@@H](CC1CCCCC1)C(=O)O; Cit = NC(=O)NCCC[C@H](N)C(=O)O; NMeL = CN[C@@H](CC(C)C)C(=O)O; Thr(3ξ) = CC(O)[C@H](N)C(=O)O; Hpra = C#CCC[C@H](N)C(=O)O; Carboxymethyl = O=C(O)C*; NMeA = CN[C@@H](C)C(=O)O; Orn = NCCC[C@H](N)C(=O)O; Dab = NCC[C@H](N)C(=O)O; Nva = CCC[C@H](N)C(=O)O; Dap = NC[C@H](N)C(=O)O; Piv = CC(C)(C)C(=O)*; ξV = CC(C)C(N)C(=O)O; ξC = NC(CS)C(=O)O; Acm = CC(=O)NC*

This assay deals with T1, PE-labeled human PD-L1-Ig binding to Jurkat cell line over-expressing human PD-1 (Jurkat-PD-1) (Homo sapiens, UniProt Q15116).
T1 construct: expressed in transfected cells; host or cells: Jurkat
T1 sequence (Q15116 25-288): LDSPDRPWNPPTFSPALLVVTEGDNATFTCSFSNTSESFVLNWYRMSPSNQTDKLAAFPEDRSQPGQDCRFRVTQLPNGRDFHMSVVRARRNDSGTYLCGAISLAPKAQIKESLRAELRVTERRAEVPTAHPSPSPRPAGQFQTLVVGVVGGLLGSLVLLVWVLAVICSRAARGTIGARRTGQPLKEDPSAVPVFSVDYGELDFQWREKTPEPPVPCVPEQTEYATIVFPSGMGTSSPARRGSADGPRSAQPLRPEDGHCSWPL
The assay is described as follows: Jurkat-PD-1 Cell Binding High-Content Screening Assay (CBA): Method 1. Conditions: Jurkat-hPD-1 cells, PE-labeled PD-L1-Ig 20 nM final; read-out: Jurkat HPDL1 PD1 IC50 (uM) (Method 1).
Take `CC(=O)NCSC[C@@H]1NC(=O)[C@H](Cc2cccc(C)c2)NC(=O)[C@H](CC(=O)O)NC(=O)[C@H](Cc2ccncc2)NC(=O)[C@H](Cc2ccc(OCC(=O)O)cc2)NC(=O)CSCC(C(=O)NCC(N)=O)NC(=O)[C@H](CSCNC(C)=O)NC(=O)[C@H](C(C)C)NC(=O)[C@H](CC(C)C)NC(=O)[C@H](CC(N)=O)NC(=O)[C@@H](CC(C)C)NC(=O)[C@H](C)N(C)C(=O)[C@H](C(C)C)NC(=O)[C@H](Cc2ccc(-c3ccccc3)cc2)NC1=O` (stereo partly drawn) [Compound 1885] ({CH2CO}-Y(Carboxymethyl)[4Pal]D[Phe(3-Me)]C(Acm)[Bip]V[NMeA][dL]NLVC(Acm)[ξC]G-NH2; thioether N-14): the IC50 was 0.11 µM.
As for `C#CCC[C@H](NC(=O)[C@H](CCCN)NC(=O)[C@@H]1CSCC(=O)N[C@@H](Cc2ccncc2)C(=O)N[C@@H](Cc2ccc(OCC(=O)O)cc2)C(=O)N[C@@H](CC(=O)O)C(=O)N[C@@H](Cc2cccc(C)c2)C(=O)N[C@@H](C(C)C)C(=O)N[C@@H](Cc2ccc(-c3ccccc3)cc2)C(=O)N[C@@H](C(C)C)C(=O)N(C)[C@@H](C)C(=O)N[C@H](CC(C)C)C(=O)N[C@@H](CCN)C(=O)N[C@@H](CC2CCCCC2)C(=O)N[C@@H](C(C)C)C(=O)N[C@@H]([C@@H](C)O)C(=O)N1)C(N)=O` [Compound 1878] ({CH2CO}-[4Pal]Y(Carboxymethyl)D[Phe(3-Me)]V[Bip]V[NMeA][dL][Dab][Cha]VTC[Orn][Hpra]-NH2; thioether N-14), the figure is 0.01 µM.
Then `CC(C)C[C@H]1NC(=O)[C@H](C)N(C)C(=O)[C@H](CCC(=O)O)NC(=O)[C@H](Cc2ccc(-c3ccccc3)cc2)NC(=O)[C@H](C(C)C)NC(=O)[C@H](Cc2c[nH]c3ccccc23)NC(=O)[C@H](CC(=O)O)NC(=O)[C@H](Cc2ccc(OCC(=O)O)cc2)NC(=O)[C@H](CC(N)=O)NC(=O)CSC[C@@H](C(=O)NCC(N)=O)NC(=O)[C@H](C(C)O)NC(=O)[C@H](C(C)C)NC(=O)[C@H](CC2CCCCC2)NC(=O)[C@H](CCN)NC1=O` (stereo partly drawn) [Compound 2085] ({CH2CO}-NY(Carboxymethyl)DWV[Bip]E[NMeA][dL][Dab][Cha]V[Thr(3ξ)]CG-NH2; thioether N-14), with 0.01 µM; and `CC[C@H](C)[C@@H]1NC(=O)[C@H](Cc2ccc(-c3ccccc3)cc2)NC(=O)[C@H](C(C)C)NC(=O)[C@H](Cc2c[nH]c3ccccc23)NC(=O)[C@H](CC(=O)O)NC(=O)[C@H](Cc2ccc(O)cc2)NC(=O)[C@H](Cc2ccccc2)NC(=O)CSC[C@@H](C(=O)N[C@@H](C)C(N)=O)NC(=O)[C@H]([C@@H](C)O)NC(=O)[C@H](C(C)C)NC(=O)[C@H](CC(C)C)NC(=O)[C@H](CCN)NC(=O)[C@@H](CC(C)C)NC(=O)[C@H](C)N(C)C1=O` [Compound 1393] ({CH2CO}-FYDWV[Bip]I[NMeA][dL][Dab]LVTCA-NH2; thioether N-14), with 0.03 µM; and `Cc1cccc(C[C@@H]2NC(=O)[C@H](CC(=O)O)NC(=O)[C@H](Cc3ccc(OCC(=O)O)cc3)NC(=O)[C@H]([C@@H](C)O)NC(=O)CSC[C@@H](C(N)=O)NC(=O)[C@H]([C@@H](C)O)NC(=O)[C@H](C(C)C)NC(=O)[C@H](CC3CCCCC3)NC(=O)[C@H](CCN)NC(=O)[C@@H](CC(C)C)NC(=O)[C@H](C)N(C)C(=O)[C@H](Cc3ccc(OCC(=O)O)cc3)NC(=O)[C@H](Cc3ccc(-c4ccccc4)cc3)NC(=O)[C@H](Cc3ccc(OCC(=O)O)cc3)NC2=O)c1` [Compound 1672] ({CH2CO}-TY(Carboxymethyl)D[Phe(3-Me)]Y(Carboxymethyl)[Bip]Y(Carboxymethyl)[NMeA][dL][Dab][Cha]VTC-NH2; thioether N-14), with 0.09 µM.
As for `CC(C)C[C@@H]1NC(=O)[C@H](CCN)NC(=O)[C@@H](CC(C)C)NC(=O)[C@H](CC(C)C)N(C)C(=O)[C@H](C(C)C)NC(=O)[C@H](Cc2ccc(-c3ccccc3)cc2)NC(=O)[C@H](C(C)C)NC(=O)[C@H](Cc2c[nH]c3ccccc23)NC(=O)[C@H](CC(=O)O)NC(=O)[C@H](Cc2ccc(O)cc2)NC(=O)[C@H](CC(N)=O)NC(=O)CSC[C@@H](C(=O)N[C@@H](C)C(N)=O)NC(=O)[C@H]([C@@H](C)O)NC(=O)[C@H](C(C)C)NC1=O` [Compound 1371] ({CH2CO}-NYDWV[Bip]V[NMeL][dL][Dab]LVTCA-NH2; thioether N-14), the figure is 0.03 µM.
In the case of `CC(C)C[C@H]1NC(=O)[C@H](C)N(C)C(=O)[C@H](C(C)(C)O)NC(=O)[C@H](Cc2ccc(-c3ccccc3)cc2)NC(=O)[C@H](C(C)(C)O)NC(=O)[C@H](Cc2c[nH]c3ccccc23)NC(=O)[C@H](CC(=O)O)NC(=O)[C@H](Cc2ccc(C(=O)O)cc2)NC(=O)[C@H](Cc2ccc(OCC(=O)O)cc2)NC(=O)CSC[C@@H](C(=O)N[C@@H](CCN)C(N)=O)NC(=O)[C@H](CCC(=O)O)NC(=O)[C@H](C(C)(C)O)NC(=O)[C@H](CC2CCCCC2)NC(=O)[C@H](CCN)NC1=O` [Compound 1713] ({CH2CO}-Y(Carboxymethyl)[Phe(4-COOH)]DW[Val(3-OH)][Bip][Val(3-OH)][NMeA][dL][Dab][Cha][Val(3-OH)]EC[Dab]-NH2; thioether N-14), the IC50 is 0.13 µM.
Then `Cc1cccc(C[C@@H]2NC(=O)[C@H](CC(=O)O)NC(=O)[C@H](Cc3ccc(OCC(=O)O)cc3)NC(=O)[C@H](CN)NC(=O)CSC[C@@H](C(=O)N[C@@H](CCN)C(N)=O)NC(=O)[C@H]([C@@H](C)O)NC(=O)[C@H](C(C)C)NC(=O)[C@H](CC3CCCCC3)NC(=O)[C@H](CCNC(=O)C(C)(C)C)NC(=O)[C@@H](CC(C)C)NC(=O)[C@H](C)N(C)C(=O)[C@H](Cc3ccc(OCC(=O)O)cc3)NC(=O)[C@H](Cc3ccc(-c4ccccc4)cc3)NC(=O)[C@H](Cc3ccc(OCC(=O)O)cc3)NC2=O)c1` [Compound 1864] ({CH2CO}-[Dap]Y(Carboxymethyl)D[Phe(3-Me)]Y(Carboxymethyl)[Bip]Y(Carboxymethyl)[NMeA][dL][Dab](Piv)[Cha]VTC[Dab]-NH2; thioether N-14), with 0.04 µM; and `CC(C)C[C@@H]1NC(=O)[C@H](CCN)NC(=O)[C@@H](CC(C)C)NC(=O)[C@H](C)N(C)C(=O)[C@H](CCCNC(=N)N)NC(=O)[C@H](Cc2ccc(-c3ccccc3)cc2)NC(=O)[C@H](C(C)C)NC(=O)[C@H](Cc2cccc(C#N)c2)NC(=O)[C@H](CC(=O)O)NC(=O)[C@H](Cc2ccc(OCC(=O)O)cc2)NC(=O)[C@H](CN)NC(=O)CSC[C@@H](C(=O)N[C@@H](C)C(N)=O)NC(=O)[C@H]([C@@H](C)O)NC(=O)[C@H](C(C)C)NC1=O` [Compound 1449] ({CH2CO}-[Dap]Y(Carboxymethyl)D[Phe(3-CN)]V[Bip]R[NMeA][dL][Dab]LVTCA-NH2; thioether N-14), with 0.17 µM; and `CC(C)C[C@@H]1NC(=O)[C@H](CCN)NC(=O)[C@@H](CC(C)C)NC(=O)[C@H](C)N(C)C(=O)[C@H](CCCNC(N)=O)NC(=O)[C@H](Cc2ccc(-c3ccccc3)cc2)NC(=O)[C@H](C(C)C)NC(=O)[C@H](Cc2c[nH]c3ccccc23)NC(=O)[C@H](CC(=O)O)NC(=O)[C@H](Cc2cccc(C#N)c2)NC(=O)[C@H](CN)NC(=O)CSC[C@@H](C(=O)N[C@@H](C)C(N)=O)NC(=O)[C@H]([C@@H](C)O)NC(=O)[C@H](C(C)C)NC1=O` [Compound 1403] ({CH2CO}-[Dap][Phe(3-CN)]DWV[Bip][Cit][NMeA][dL][Dab]LVTCA-NH2; thioether N-14), with 0.13 µM.
As for `CC(C)C[C@@H]1NC(=O)[C@H](CCN)NC(=O)[C@@H](CC(C)C)NC(=O)[C@H](C)N(C)C(=O)[C@H](CCCNC(N)=O)NC(=O)[C@H](Cc2ccc(-c3ccccc3)cc2)NC(=O)[C@H](C(C)C)NC(=O)[C@H](Cc2c[nH]c3ccccc23)NC(=O)[C@H](CC(=O)O)NC(=O)[C@H](Cc2ccncc2)NC(=O)[C@H](CC(N)=O)NC(=O)CSC[C@@H](C(=O)N[C@@H](C)C(N)=O)NC(=O)[C@H]([C@@H](C)O)NC(=O)[C@H](C(C)C)NC1=O` [Compound 1320] ({CH2CO}-N[4Pal]DWV[Bip][Cit][NMeA][dL][Dab]LVTCA-NH2; thioether N-14), the IC50 is 0.02 µM.
As for `CCC[C@@H]1NC(=O)[C@H](CC(C)C)NC(=O)[C@H](CCCNC(=N)N)NC(=O)[C@@H](CC(C)C)NC(=O)[C@H](C)N(C)C(=O)[C@H](CCCNC(=N)N)NC(=O)[C@H](Cc2ccc(-c3ccccc3)cc2)NC(=O)[C@H](C(C)C)NC(=O)[C@H](Cc2c[nH]c3ccccc23)NC(=O)[C@H](CC(=O)O)NC(=O)[C@H](Cc2ccc(O)cc2)NC(=O)[C@H](Cc2ccccc2)NC(=O)CSC[C@@H](C(=O)N[C@@H](C)C(N)=O)NC(=O)[C@H]([C@@H](C)O)NC1=O` [Compound 1112] ({CH2CO}-FYDWV[Bip]R[NMeA][dL]RL[Nva]TCA-NH2; thioether N-14), the figure is 0.1 µM.
As for `CC[C@@H](C)[C@@H]1NC(=O)[C@H](Cc2ccc(-c3ccccc3)cc2)NC(=O)[C@H](CC(C)C)NC(=O)[C@H](Cc2c[nH]c3ccccc23)NC(=O)[C@H](CC(=O)O)NC(=O)[C@H](Cc2ccc(C(=O)O)cc2)NC(=O)[C@H](Cc2ccc(OCC(=O)O)cc2)NC(=O)CSC[C@@H](C(=O)N[C@@H](CCCCN)C(N)=O)NC(=O)[C@H](CC(=O)O)NC(=O)C(C(C)C)NC(=O)[C@H](CC(C)C)NC(=O)[C@H](CC(N)=O)NC(=O)[C@@H](CC(C)C)NC(=O)[C@H](C)N(C)C1=O` (stereo partly drawn) [Compound 2105] ({CH2CO}-Y(Carboxymethyl)[Phe(4-COOH)]DWL[Bip][aIle][NMeA][dL]NL[ξV]DCK-NH2; thioether N-14), the figure is 0.1 µM; as for `CC(C)C[C@@H]1NC(=O)[C@H](Cc2c[nH]c3ccccc23)NC(=O)[C@H](CC(=O)O)NC(=O)[C@H](Cc2ccc(O)cc2)NC(=O)[C@H](Cc2ccccc2)NC(=O)CSC[C@@H](C(=O)NCC(N)=O)NC(=O)[C@H](CO)NC(=O)[C@H](C(C)C)NC(=O)[C@H](CC(C)C)NC(=O)[C@H](CC(N)=O)NC(=O)[C@@H](CO)NC(=O)[C@H](C)N(C)C(=O)[C@H](C(C)C)NC(=O)[C@H](Cc2ccc(-c3ccccc3)cc2)NC1=O` [Compound 1819] ({CH2CO}-FYDWL[Bip]V[NMeA][dS]NLVSCG-NH2; thioether N-14), 0.43 µM.
